{"source": "patent US20240165200A1", "about": "“CATH2 AND DERIVATIVES FOR INHIBITING STREPTOCOCCUS SUIS” (Universiteit Utrecht Holding B.V., priority 2021, published 2024)", "key": {"murine BMDMs": {"tested_on": "murine BMDMs", "assay_type": "cell-based, mouse", "experimental": "FIG. 2: Peptide titration on BMDM and BMDCs for cytotoxicity and expression of cell markers. Mouse BMDM (A, C, E, G) and BMDCs (B, D, F, H) were cultured for 6 days with […]. Different concentrations were added at day 6 (A, B, E, F) or the cells were primed with different concentrations peptides at day 1-2 (C, D, G, H). At day 7, cell viability was tested using WST-1 reagent, with no-peptide-control set to 100% viability (A-D) and cells were analyzed by flowcytometry for cell marker expression (E-H). Results are depicted as mean +/−S.E.M. (n=3).\nBone marrow cells, isolated from the femur and tibia of both hindlegs, were stored in FCS/10% DMSO in liquid nitrogen. Cells were grown at a concentration of 5×10^5 cells mL^−1 in RPMI-1640 without phenol red (Thermo Fisher Scientific, MA, USA) supplemented with 10% fetal calf serum (FCS) (Corning, NY, USA) and 1% Penicillin/streptomycin (Thermo Fisher Scientific). […] Cells were stained with antibodies (table 1) for 20 minutes, washed and measured using the BD FACSCanto-II (BD bioscience) and analyzed with FlowJo software (Ashland, OR, USA).\nWST-1 reagent (roche) was used for cell viability of BMDCs and BMDM as well as for cell activity of activated splenocytes. […] After 30-60 minutes, colorimetric changes were measured at 450 nm using a FLUOstar Omega microplate reader (BMG Labtech GmbH, Ortenberg, Germany). […]"}, "[1]": {"tested_on": "4 different S. suis serotype 2 strains", "assay": "Colony count assay (MBC), summary over the four strains", "assay_type": "cell-based, Streptococcus suis", "conditions": "four sub-strains, RPMI+10% FCS medium", "experimental": "FIG. 1: D-CATH2 and its derivatives efficiently kills several S. suis type2 strains in both THB and RPMI+FCS. Antibacterial activity of D-CATH2 and its derivatives against 10^6 CFU ml^−1 S. suis type 2 strains (P1/7, D282, 5735, and OV625) was tested using a colony count assay in both THB medium (A) and RPMI+FCS (B). 2 log CFU mL^−1 was set as detection limit for the experiment. Data is plotted as average +/−SEM (N=3-4).\nS. suis Serotype 2 strains P1/7, D282, S735, and OV625 were grown into mid-logarithmic phase for 3-4 hours at 37° C. in THB, after which bacteria were centrifuged at 1200×g for 10 minutes at 4° C. and resuspended in fresh THB. Concentration was determined by measuring the OD value at 620 nm with an OD of 0.1 is 1×10^8 colony forming units (CFU) mL^−1. 10^6 CFU mL^−1 S suis was mixed with different concentrations of D-CATH and derivatives (0.63−40 μM) and left for 3 hours at 37° C. Ten-fold dilutions were prepared and spread in Tryptan Soy agar (TSA) plates containing 5% (vol/vol) defibrinated sheep blood (Oxoid) and colonies were allowed to grow for 48 hours. Minimal Bactericidal Concentration (MBC) was defined as ≤100 CFU mL^−1 (2 logCFU mL^−1), the detection limit of the assay."}, "[2]": {"assay": "Isothermal titration calorimetry (ITC) of peptide binding to LTA-SA", "design": "species or system S. aureus", "conditions": "200 μM peptide titrated into LTA-SA, 37° C., dPBS; read-out: Kd (dissociation coefficient)", "experimental": "Thermodynamic binding capacity of 200 μM D-CATH2 (A), DC(1-21) (B), and DC(4-21) (C) to 200 μM LTA-SA was measured using isothermal titration calorimetry (ITC). Every 300 seconds, 1.99 μl peptide solution was titrated into 164 μl LTA solution. The corrected heat rate (μJ sec^−1) is plotted (top panel) and normalized integrated heat was plotted against the molar ratio between LTA and the peptide (lower panel). Experiments (N=3) were averaged before plotting and fitting an independent model. The corrected heat rate of D-CATH2, DC(1-21), and DC(4-21) is depicted for comparison (D).\nThe interaction between the D-CATH2 peptides and LTA-SA was tested using isothermal titration calorimetry (ITC). All ITC experiments were performed on a Low Volume NanoITC (TA instruments-Waters LLC, New Castle, USA). 800 μM of LTA-SA or peptide solution was prepared in MilliQ after which a 4-fold dilution in dPBS (Gibco) was made. The chamber was filled with 164 μl LTA-SA and the peptide was loaded in the syringe. Every 300 seconds, 1.99 μL peptide was titrated into the chamber at 37° C. Data was analyzed using the Nano Analyze software (TA instruments-Waters LLC). The data of three experiments was averaged and an independent model was used to determine the peptide-LTA interaction."}, "[3]": {"tested_on": "murine macrophage cell-line", "conditions": "biological form of CATH2; cited from earlier work"}}, "note": "Where a SMILES comes first, the peptide text is derived from it. [ ]: non-standard residue; d: D form."}
{"molecule": "CC[C@@H](C)[C@@H](NC(=O)[C@@H](CCCCN)NC(=O)[C@@H](CCCNC(=N)N)NC(=O)[C@@H](CC(C)C)NC(=O)[C@@H](Cc1ccccc1)NC(=O)[C@@H](CCCNC(=N)N)NC(=O)CNC(=O)[C@@H](Cc1ccccc1)NC(=O)[C@H](N)CCCNC(=N)N)C(=O)N[C@H](CCCNC(=N)N)C(=O)N[C@H](CCCNC(=N)N)C(=O)N[C@H](Cc1ccccc1)C(=O)N[C@H](CCCNC(=N)N)C(=O)N1CCC[C@@H]1C(=O)N[C@H](CCCCN)C(=O)N[C@@H](C(=O)N[C@@H](C(=O)N[C@@H](C(=O)N[C@@H](C(=O)N[C@@H](C(=O)N[C@H](CCC(N)=O)C(=O)NCC(=O)N[C@H](CO)C(=O)N[C@H](C)C(=O)N[C@H](CCCNC(=N)N)C(=O)N[C@H](Cc1ccccc1)C(N)=O)[C@H](C)CC)[C@H](C)O)[C@H](C)CC)[C@H](C)O)C(C)C", "note": "[D-CATH2]", "values": [{"measurement": "cell viability of BMDMs", "setting": "murine BMDMs", "result": "relative sensitive"}]}
{"molecule": "CC[C@@H](C)[C@@H](NC(=O)[C@@H](CCCCN)NC(=O)[C@@H](CCCNC(=N)N)NC(=O)[C@@H](CC(C)C)NC(=O)[C@@H](Cc1ccccc1)NC(=O)[C@H](N)CCCNC(=N)N)C(=O)N[C@H](CCCNC(=N)N)C(=O)N[C@H](CCCNC(=N)N)C(=O)N[C@H](Cc1ccccc1)C(=O)N[C@H](CCCNC(=N)N)C(=O)N1CCC[C@@H]1C(=O)N[C@H](CCCCN)C(=O)N[C@@H](C(=O)N[C@@H](C(=O)N[C@@H](C(=O)N[C@@H](C(=O)N[C@@H](C(=O)N[C@H](CCC(N)=O)C(N)=O)[C@H](C)CC)[C@H](C)O)[C@H](C)CC)[C@H](C)O)C(C)C", "note": "[DC(4-21), RFLRKIRRFRPKVTITIQ-NH2] (H-[dR][dF][dL][dR][dK][dI][dR][dR][dF][dR][dP][dK][dV][dT][dI][dT][dI][dQ]-NH2; N-terminus assumed)", "values": [{"measurement": "MBC", "setting": "[1]", "result": 2.5, "unit": "µM"}, {"measurement": "Kd", "setting": "[2]", "result": 2.12, "unit": "µM"}]}
{"molecule": "RFGRFLRKIRRFRPKVTITIQGSARFG [CATH2, chicken cathelicidin-2, 27 amino acid C-terminal peptide]", "values": [{"measurement": "LPS and LTA activation", "setting": "[3]", "result": "inhibit"}]}
{"molecule": "CC[C@@H](C)[C@@H](NC(=O)[C@@H](CCCCN)NC(=O)[C@@H](CCCNC(=N)N)NC(=O)[C@@H](CC(C)C)NC(=O)[C@@H](Cc1ccccc1)NC(=O)[C@@H](CCCNC(=N)N)NC(=O)CNC(=O)[C@@H](Cc1ccccc1)NC(=O)[C@H](N)CCCNC(=N)N)C(=O)N[C@H](CCCNC(=N)N)C(=O)N[C@H](CCCNC(=N)N)C(=O)N[C@H](Cc1ccccc1)C(=O)N[C@H](CCCNC(=N)N)C(=O)N1CCC[C@@H]1C(=O)N[C@H](CCCCN)C(=O)N[C@@H](C(=O)N[C@@H](C(=O)N[C@@H](C(=O)N[C@@H](C(=O)N[C@@H](C(=O)N[C@H](CCC(N)=O)C(N)=O)[C@H](C)CC)[C@H](C)O)[C@H](C)CC)[C@H](C)O)C(C)C", "note": "[DC(1-21)]", "values": [{"measurement": "cell viability of BMDMs", "setting": "murine BMDMs", "result": "especially"}]}
